For two compounds, IC50 results are on record in ChEMBL document CHEMBL5346896, “Development of indolealkylamine derivatives as potential multi-target agents for COVID-19 treatment” (Eur J Med Chem, 2023).

The assay concerns SARS-CoV-2. The experiment in a line: Antiviral activity against SARS-CoV-2 spike pseudotyped lentivirus infected in HEK293 cells expressing human ACE2 assessed as inhibition of viral entry into cells preincubated with cell for 1 hrs followed by viral infection for 1 hrs and further replaced with fresh medium and measured 48 hrs post transduction by luminescence based luciferase reporter assay. The following applies: Severe acute respiratory syndrome coronavirus 2, HEK-293T. In kind it is functional, organism-based, HEK293T. In general terms: Reporter assays use an easily measured gene product as a stand-in for the process of interest.

The structures appear in SMILES notation. pIC50: −log10 of the molar value.

As for `COc1ccc2[nH]c(C(O)c3ccc(Cl)cc3)c(CCNC(C)=O)c2c1` (configuration not stated), the pIC50 (commonly the IC50 on a negative log10 scale, so that one unit is a factor of ten) was about 6.00.
The value for `COC(=O)NCCc1c(C(O)c2ccccc2)[nH]c2ccc(OC)cc12` (configuration not stated) was about 6.00.
